Data from ChEMBL document CHEMBL1201862, “PubChem BioAssay data set” (2004).
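Briefly, cells in 96-well plates were exposed to five compound concentrations for 48 h, and endpoints were estimated by linear interpolation. The concentration for 50% growth inhibition is given as GI50.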 Calls of active or inactive are those of the source. Cut-off read from the data, not from the text of the source: active = GI50 up to about 1.1 µM and inactive = higher.

Columns and labels:
Experiment in all cases: inhibition of tumour cell growth, NCI panel, 48 h
786-0 = test system: 786-0
A498 = test system: A498
A549 = test system: A549
ACHN = test system: ACHN
CAKI-1 = test system: CAKI-1
CCRF-CEM = test system: CCRF-CEM
COLO 205 = test system: COLO 205
DLD-1 = test system: DLD-1
DMS-114 = test system: DMS-114
DMS-273 = test system: DMS-273
EKVX = test system: EKVX
HCC 2998 = test system: HCC 2998
HCT-116 = test system: HCT-116
HCT-15 = test system: HCT-15
HL-60 = test system: HL-60
HOP-18 = test system: HOP-18
HOP-62 = test system: HOP-62
HOP-92 = test system: HOP-92
HT-29 = test system: HT-29
IGROV-1 = test system: IGROV-1
K562 = test system: K562
KM-20L2 = test system: KM-20L2
KM12 = test system: KM12
LOX IMVI = test system: LOX IMVI
M14 = test system: M14
M19-MEL = test system: M19-MEL
MOLT-4 = test system: MOLT-4
Malme-3M = test system: Malme-3M
NCI-H226 = test system: NCI-H226
NCI-H23 = test system: NCI-H23
NCI-H460 = test system: NCI-H460
NCI-H522 = test system: NCI-H522
OVCAR-3 = test system: OVCAR-3
OVCAR-4 = test system: OVCAR-4
OVCAR-5 = test system: OVCAR-5
OVCAR-8 = test system: OVCAR-8
RPMI-8226 = test system: RPMI-8226
RXF 393 = test system: RXF 393
SF-268 = test system: SF-268
SF-295 = test system: SF-295
SF-539 = test system: SF-539
SK-MEL-28 = test system: SK-MEL-28
SK-MEL-2 = test system: SK-MEL-2
SK-MEL-5 = test system: SK-MEL-5
SK-OV-3 = test system: SK-OV-3
SN12C = test system: SN12C
SNB-19 = test system: SNB-19
SNB-75 = test system: SNB-75
SNB-78 = test system: SNB-78
SR = test system: SR
SW-620 = test system: SW-620
TK-10 = test system: TK-10
U-251 = test system: U-251
UACC-257 = test system: UACC-257
UACC-62 = test system: UACC-62
UO-31 = test system: UO-31
LXFL 529 = test system: LXFL 529
XF498 = test system: XF498

Measured: GI50

CCOC(=O)C1=C(O)C(=O)c2cc(OC)ccc2C1=O
> 100 µM: HCT-15
inactive: 786-0 > 100 µM | A498 > 100 µM | A549 96.2 µM | ACHN > 100 µM | CAKI-1 > 100 µM | CCRF-CEM > 100 µM | COLO 205 > 100 µM | DLD-1 > 100 µM | DMS-114 > 100 µM | DMS-273 > 100 µM | EKVX > 100 µM | HCC 2998 > 100 µM | HCT-116 95.5 µM | HL-60 > 100 µM | HOP-18 4.51 µM | HOP-62 > 100 µM | HOP-92 > 100 µM | HT-29 > 100 µM | IGROV-1 > 100 µM | K562 > 100 µM | KM-20L2 > 100 µM | KM12 > 100 µM | LOX IMVI 55.2 µM | M14 > 100 µM | M19-MEL 20.7 µM | MOLT-4 > 100 µM | Malme-3M > 100 µM | NCI-H226 38.5 µM | NCI-H23 31.8 µM | NCI-H460 > 100 µM | NCI-H522 55.7 µM | OVCAR-3 > 100 µM | OVCAR-4 > 100 µM | OVCAR-5 > 100 µM | OVCAR-8 > 100 µM | RPMI-8226 > 100 µM | RXF 393 > 100 µM | SF-268 > 100 µM | SF-295 84.9 µM | SF-539 65.9 µM | SK-MEL-28 > 100 µM | SK-MEL-2 > 100 µM | SK-MEL-5 49.1 µM | SK-OV-3 > 100 µM | SN12C > 100 µM | SNB-19 38.9 µM | SNB-75 20.9 µM | SNB-78 > 100 µM | SR > 100 µM | SW-620 > 100 µM | TK-10 > 100 µM | U-251 > 100 µM | UACC-257 35.1 µM | UACC-62 > 100 µM | UO-31 63 µM

CC(=O)Nc1ccc(C(=O)NN2C(=O)C(Cl)C2c2ccc([N+](=O)[O-])cc2)cc1 (configuration not stated)
inactive: 786-0 > 100 µM | A498 > 100 µM | A549 > 100 µM | ACHN > 100 µM | CAKI-1 > 100 µM | CCRF-CEM > 100 µM | COLO 205 > 100 µM | DMS-273 > 100 µM | EKVX > 100 µM | HCT-116 > 100 µM | HL-60 > 100 µM | HOP-62 > 100 µM | HOP-92 > 100 µM | HT-29 > 100 µM | IGROV-1 > 100 µM | K562 > 100 µM | KM-20L2 > 100 µM | LOX IMVI > 100 µM | LXFL 529 > 100 µM | M14 > 100 µM | M19-MEL > 100 µM | MOLT-4 > 100 µM | Malme-3M > 100 µM | NCI-H226 > 100 µM | NCI-H23 > 100 µM | NCI-H460 > 100 µM | NCI-H522 > 100 µM | OVCAR-3 > 100 µM | OVCAR-4 > 100 µM | OVCAR-5 > 100 µM | OVCAR-8 > 100 µM | RXF 393 > 100 µM | SF-268 > 100 µM | SF-295 > 100 µM | SF-539 > 100 µM | SK-MEL-28 > 100 µM | SK-MEL-2 > 100 µM | SK-MEL-5 > 100 µM | SK-OV-3 > 100 µM | SN12C > 100 µM | SNB-19 > 100 µM | SNB-75 > 100 µM | SNB-78 > 100 µM | SW-620 > 100 µM | TK-10 > 100 µM | U-251 > 100 µM | UACC-257 > 100 µM | UACC-62 > 100 µM | UO-31 > 100 µM | XF498 > 100 µM
> 100 µM: HCT-15
